Data taken from US20260224588A1, “BENZODIAZEPINONE-DERIVED INHIBITORS OF EGFR AND HER2” (The Research Foundation for the State University of New York, priority 2023, published 2026).

Columns and labels:
Experiment in all cases: KINOMEscan
Type in all cases: binding
Conditions in all cases: 1 μM of compound 4; read-out: POC
[1] = target: T1, ABL1(Y253F)-phosphorylated (Homo sapiens, UniProt P00519, Y253F)
T1 construct: purchased Eurofins DiscoverX Corporation

ACVR1B = target: T2, ACVR1B (Homo sapiens, UniProt P36896)
T2 construct: purchased Eurofins DiscoverX Corporation
T2 sequence (P36896 24-505): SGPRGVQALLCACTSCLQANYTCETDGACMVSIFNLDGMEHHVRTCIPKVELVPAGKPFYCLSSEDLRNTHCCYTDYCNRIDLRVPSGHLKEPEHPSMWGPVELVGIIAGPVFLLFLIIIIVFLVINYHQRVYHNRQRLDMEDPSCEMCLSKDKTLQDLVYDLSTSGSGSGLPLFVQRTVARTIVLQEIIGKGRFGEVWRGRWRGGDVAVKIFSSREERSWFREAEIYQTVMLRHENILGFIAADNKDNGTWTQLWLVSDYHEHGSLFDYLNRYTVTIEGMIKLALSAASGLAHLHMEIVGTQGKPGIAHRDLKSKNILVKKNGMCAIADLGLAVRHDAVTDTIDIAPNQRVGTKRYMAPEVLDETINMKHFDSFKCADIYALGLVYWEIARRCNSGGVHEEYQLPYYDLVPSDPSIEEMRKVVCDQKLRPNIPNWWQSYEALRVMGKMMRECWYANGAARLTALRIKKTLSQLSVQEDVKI

BMPR2 = BMPR2 (Homo sapiens, UniProt Q13873)
CAMK1D = CAMK1D (Homo sapiens, UniProt Q8IU85)
CAMK2B = CAMK2B (Homo sapiens, UniProt Q13554)
Chain of CAMK2B (Q13554 whole entry): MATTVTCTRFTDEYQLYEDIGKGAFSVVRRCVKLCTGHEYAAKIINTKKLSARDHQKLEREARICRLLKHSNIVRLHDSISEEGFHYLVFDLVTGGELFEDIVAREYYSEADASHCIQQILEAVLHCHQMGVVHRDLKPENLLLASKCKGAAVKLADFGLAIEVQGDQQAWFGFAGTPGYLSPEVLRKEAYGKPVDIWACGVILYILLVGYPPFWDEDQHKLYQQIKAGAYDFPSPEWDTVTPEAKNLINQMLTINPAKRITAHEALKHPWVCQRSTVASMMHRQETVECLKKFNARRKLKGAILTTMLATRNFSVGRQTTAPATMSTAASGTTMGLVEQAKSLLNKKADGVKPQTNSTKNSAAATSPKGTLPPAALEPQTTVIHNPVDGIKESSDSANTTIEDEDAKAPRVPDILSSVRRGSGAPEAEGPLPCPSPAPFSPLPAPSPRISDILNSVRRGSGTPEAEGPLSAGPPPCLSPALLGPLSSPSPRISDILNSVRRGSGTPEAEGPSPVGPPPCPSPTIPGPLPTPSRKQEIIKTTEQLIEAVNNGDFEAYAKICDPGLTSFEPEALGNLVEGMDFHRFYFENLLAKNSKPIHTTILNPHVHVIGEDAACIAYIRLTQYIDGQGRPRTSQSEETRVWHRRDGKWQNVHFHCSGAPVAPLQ

CDK9 = CDK9 (Homo sapiens, UniProt P50750)
CSF1R-autoinhibited = CSF1R-autoinhibited (Homo sapiens, UniProt P07333)
CSNK2A2 = CSNK2A2 (Homo sapiens, UniProt P19784)
Chain of CSNK2A2 (P19784 whole entry): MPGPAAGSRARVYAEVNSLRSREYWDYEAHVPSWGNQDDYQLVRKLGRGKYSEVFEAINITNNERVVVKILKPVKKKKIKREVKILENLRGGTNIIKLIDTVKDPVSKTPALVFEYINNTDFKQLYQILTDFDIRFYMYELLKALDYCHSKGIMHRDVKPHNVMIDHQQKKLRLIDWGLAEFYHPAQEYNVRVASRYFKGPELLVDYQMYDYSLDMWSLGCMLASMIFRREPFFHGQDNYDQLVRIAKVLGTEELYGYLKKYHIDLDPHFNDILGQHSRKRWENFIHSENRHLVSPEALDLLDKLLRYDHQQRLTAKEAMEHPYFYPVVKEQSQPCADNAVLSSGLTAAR

DRAK1 = DRAK1 (Homo sapiens, UniProt Q9UEE5)
EIF2AK1 = target: T3, EIF2AK1 (Homo sapiens, UniProt Q9BQI3)
T3 construct: purchased Eurofins DiscoverX (KINOMEscan service)

ERK1 = target: T4, ERK1 (Homo sapiens, UniProt P27361)
T4 construct: purchased Eurofins DiscoverX Corporation

ERK5 = target: T5, ERK5 (Homo sapiens, UniProt Q13164)
T5 construct: purchased Eurofins DiscoverX Corporation

FLT3-autoinhibited = target: T6, FLT3-autoinhibited (Homo sapiens, UniProt P36888)
T6 construct: purchased Eurofins DiscoverX Corporation

FRK = target: T7, FRK (Homo sapiens, UniProt P42685)
T7 construct: purchased Eurofins DiscoverX Corporation
T7 sequence (P42685 whole entry): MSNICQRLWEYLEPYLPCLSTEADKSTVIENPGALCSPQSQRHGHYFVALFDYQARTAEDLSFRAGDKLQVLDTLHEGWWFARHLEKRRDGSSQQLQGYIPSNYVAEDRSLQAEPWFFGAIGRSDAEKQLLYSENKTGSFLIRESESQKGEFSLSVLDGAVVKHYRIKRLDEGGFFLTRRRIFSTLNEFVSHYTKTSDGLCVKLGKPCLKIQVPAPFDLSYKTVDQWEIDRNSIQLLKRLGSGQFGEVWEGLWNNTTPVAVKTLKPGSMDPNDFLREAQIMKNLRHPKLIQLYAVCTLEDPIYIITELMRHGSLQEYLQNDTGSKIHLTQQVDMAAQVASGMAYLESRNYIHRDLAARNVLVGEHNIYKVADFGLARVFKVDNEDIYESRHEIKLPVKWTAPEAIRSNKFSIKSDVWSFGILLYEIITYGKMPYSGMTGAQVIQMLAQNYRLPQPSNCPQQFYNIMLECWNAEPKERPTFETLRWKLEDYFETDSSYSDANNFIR

GRK2 = target: T8, GRK2 (Homo sapiens, UniProt P25098)
T8 construct: purchased Eurofins DiscoverX Corporation

HIPK4 = target: T9, HIPK4 (Homo sapiens, UniProt Q8NE63)
T9 construct: purchased Eurofins DiscoverX Corporation

LCK = LCK (Homo sapiens, UniProt P06239)
MAP3K1 = MAP3K1 (Homo sapiens, UniProt Q13233)
Chain of MAP3K1 (Q13233 whole entry): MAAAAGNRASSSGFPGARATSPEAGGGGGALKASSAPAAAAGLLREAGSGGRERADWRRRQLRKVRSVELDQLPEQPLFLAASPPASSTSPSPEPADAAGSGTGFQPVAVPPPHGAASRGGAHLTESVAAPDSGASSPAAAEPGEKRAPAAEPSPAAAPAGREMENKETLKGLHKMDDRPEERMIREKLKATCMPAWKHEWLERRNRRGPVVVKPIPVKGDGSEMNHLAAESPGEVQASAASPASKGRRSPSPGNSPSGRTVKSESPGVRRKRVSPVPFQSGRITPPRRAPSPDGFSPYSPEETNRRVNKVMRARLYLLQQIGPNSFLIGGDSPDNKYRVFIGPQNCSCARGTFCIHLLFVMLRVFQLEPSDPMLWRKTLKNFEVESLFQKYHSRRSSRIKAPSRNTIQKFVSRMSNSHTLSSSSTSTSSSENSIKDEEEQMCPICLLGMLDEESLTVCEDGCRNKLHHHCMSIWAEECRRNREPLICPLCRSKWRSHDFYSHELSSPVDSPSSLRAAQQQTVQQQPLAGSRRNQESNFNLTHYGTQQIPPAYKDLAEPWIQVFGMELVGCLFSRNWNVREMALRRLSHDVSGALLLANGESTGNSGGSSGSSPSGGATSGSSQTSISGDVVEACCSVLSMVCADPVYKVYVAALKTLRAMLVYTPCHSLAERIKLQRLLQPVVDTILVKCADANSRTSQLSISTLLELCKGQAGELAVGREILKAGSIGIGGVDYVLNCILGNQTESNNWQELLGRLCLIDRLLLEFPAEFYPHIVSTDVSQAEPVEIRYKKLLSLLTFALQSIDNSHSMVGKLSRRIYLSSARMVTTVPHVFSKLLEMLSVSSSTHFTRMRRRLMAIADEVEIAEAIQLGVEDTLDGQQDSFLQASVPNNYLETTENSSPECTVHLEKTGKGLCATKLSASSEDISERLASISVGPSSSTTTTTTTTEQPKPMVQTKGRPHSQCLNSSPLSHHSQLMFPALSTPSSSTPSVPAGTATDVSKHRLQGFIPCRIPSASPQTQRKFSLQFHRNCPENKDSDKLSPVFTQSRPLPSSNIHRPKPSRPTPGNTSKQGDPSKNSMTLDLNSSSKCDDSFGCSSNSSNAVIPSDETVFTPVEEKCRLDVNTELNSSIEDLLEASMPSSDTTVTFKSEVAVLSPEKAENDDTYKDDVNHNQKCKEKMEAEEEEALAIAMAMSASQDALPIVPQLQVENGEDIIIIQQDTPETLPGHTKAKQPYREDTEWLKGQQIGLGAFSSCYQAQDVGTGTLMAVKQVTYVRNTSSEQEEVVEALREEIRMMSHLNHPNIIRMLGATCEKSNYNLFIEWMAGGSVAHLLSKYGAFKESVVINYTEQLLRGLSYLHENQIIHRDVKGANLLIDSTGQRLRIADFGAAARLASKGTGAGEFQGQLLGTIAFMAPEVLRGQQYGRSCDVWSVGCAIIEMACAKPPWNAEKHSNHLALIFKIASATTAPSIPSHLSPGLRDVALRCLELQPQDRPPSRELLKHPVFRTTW

NEK7 = target: T10, NEK7 (Homo sapiens, UniProt Q8TDX7)
T10 construct: purchased Eurofins DiscoverX Corporation (KINOMEscan)

PAK4 = target: T11, PAK4 (Homo sapiens, UniProt O96013)
T11 construct: purchased Eurofins DiscoverX Corporation (KINOMEscan)
T11 sequence (O96013 whole entry): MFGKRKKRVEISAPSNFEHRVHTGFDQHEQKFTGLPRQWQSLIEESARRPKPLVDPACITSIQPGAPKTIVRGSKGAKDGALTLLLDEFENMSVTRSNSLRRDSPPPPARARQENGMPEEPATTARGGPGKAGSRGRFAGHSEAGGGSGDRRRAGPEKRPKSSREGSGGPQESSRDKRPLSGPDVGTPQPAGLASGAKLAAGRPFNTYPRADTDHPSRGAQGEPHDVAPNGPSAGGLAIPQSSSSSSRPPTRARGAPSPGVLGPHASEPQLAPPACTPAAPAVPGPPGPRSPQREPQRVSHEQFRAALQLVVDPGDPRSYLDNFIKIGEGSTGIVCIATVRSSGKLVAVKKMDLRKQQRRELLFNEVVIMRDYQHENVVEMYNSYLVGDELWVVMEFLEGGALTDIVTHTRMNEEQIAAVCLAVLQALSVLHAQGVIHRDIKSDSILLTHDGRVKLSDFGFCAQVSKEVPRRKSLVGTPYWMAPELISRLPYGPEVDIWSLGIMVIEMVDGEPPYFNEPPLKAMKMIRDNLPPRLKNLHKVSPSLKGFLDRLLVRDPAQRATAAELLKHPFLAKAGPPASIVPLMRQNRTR

PCTK1 = target: T12, PCTK1 (Homo sapiens, UniProt Q00536)
T12 construct: purchased Eurofins DiscoverX Corporation (KINOMEscan)

PFPK5(P. falciparum) = target: T13, PFPK5(P. falciparum) (Plasmodium falciparum, UniProt P61075)
T13 construct: purchased Eurofins DiscoverX Corporation (KINOMEscan)

PIP5K2B = PIP5K2B (Homo sapiens, UniProt P78356)
QSK = target: T14, QSK (Homo sapiens, UniProt Q9Y2K2)
T14 construct: purchased Eurofins DiscoverX Corporation (KINOMEscan screening service)

RIPK1 = target: T15, RIPK1 (Homo sapiens, UniProt Q13546)
T15 construct: purchased Eurofins DiscoverX Corporation (KINOMEscan screening service)

ROCK2 = target: T16, ROCK2 (Homo sapiens, UniProt O75116)
T16 construct: purchased Eurofins DiscoverX Corporation (KINOMEscan screening service)

[2] = target: T17, RPS6KA5(Kin.Dom.1-N-terminal) (Homo sapiens, UniProt O75582)
T17 construct: RPS6KA5(Kin.Dom.1-N-terminal); purchased Eurofins DiscoverX Corporation (KINOMEscan screening service)

[3] = target: T18, RSK2(Kin.Dom.1-N-terminal) (Homo sapiens, UniProt P51812)
T18 construct: RSK2(Kin.Dom.1-N-terminal); purchased Eurofins DiscoverX Corporation (KINOMEscan screening service)

SGK2 = target: T19, SGK2 (Homo sapiens, UniProt Q9HBY8)
T19 construct: purchased Eurofins DiscoverX (KINOMEscan service)

STK16 = target: T20, STK16 (Homo sapiens, UniProt O75716)
T20 construct: purchased Eurofins DiscoverX (KINOMEscan service)

SYK = target: T21, SYK (Homo sapiens, UniProt P43405)
T21 construct: purchased Eurofins DiscoverX Corporation

TBK1 = target: T22, TBK1 (Homo sapiens, UniProt Q9UHD2)
T22 construct: purchased Eurofins DiscoverX Corporation
T22 sequence (Q9UHD2 whole entry): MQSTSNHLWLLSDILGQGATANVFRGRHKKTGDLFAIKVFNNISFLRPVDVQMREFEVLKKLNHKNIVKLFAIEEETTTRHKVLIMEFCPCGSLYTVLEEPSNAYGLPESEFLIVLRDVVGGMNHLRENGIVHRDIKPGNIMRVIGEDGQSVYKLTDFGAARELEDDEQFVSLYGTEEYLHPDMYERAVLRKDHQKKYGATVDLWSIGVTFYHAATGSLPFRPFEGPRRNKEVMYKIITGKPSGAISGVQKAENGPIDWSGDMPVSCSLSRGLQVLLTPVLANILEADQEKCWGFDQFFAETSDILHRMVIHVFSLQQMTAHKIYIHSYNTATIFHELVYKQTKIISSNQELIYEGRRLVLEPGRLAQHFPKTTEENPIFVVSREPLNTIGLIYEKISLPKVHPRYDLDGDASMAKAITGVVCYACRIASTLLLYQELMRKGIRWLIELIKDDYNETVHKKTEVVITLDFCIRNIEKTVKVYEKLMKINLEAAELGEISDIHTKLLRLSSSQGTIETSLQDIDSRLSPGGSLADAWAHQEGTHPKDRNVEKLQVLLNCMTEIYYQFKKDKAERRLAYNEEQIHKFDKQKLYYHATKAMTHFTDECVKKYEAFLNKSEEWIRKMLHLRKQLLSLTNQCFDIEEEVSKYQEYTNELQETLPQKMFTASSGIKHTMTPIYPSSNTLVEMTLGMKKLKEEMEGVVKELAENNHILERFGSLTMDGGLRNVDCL

TNIK = target: T23, TNIK (Homo sapiens, UniProt Q9UKE5)
T23 construct: purchased Eurofins DiscoverX Corporation

TRKA = target: T24, TRKA (Homo sapiens, UniProt P04629)
T24 construct: purchased Eurofins DiscoverX Corporation

TXK = target: T25, TXK (Homo sapiens, UniProt P42681)
T25 construct: purchased Eurofins DiscoverX

ULK2 = target: T26, ULK2 (Homo sapiens, UniProt Q8IYT8)
T26 construct: purchased Eurofins DiscoverX

WNK3 = target: T27, WNK3 (Homo sapiens, UniProt Q9BYP7)
T27 construct: purchased Eurofins DiscoverX

EGFR(L858R) = EGFR(L858R) (Homo sapiens, UniProt P00533, L858R); set-up: purchased Eurofins DiscoverX (KINOMEscan service)

## C=CC(=O)Nc1ccc(OC)c(Nc2cc(-c3[nH]c(CC)nc3-c3cccc(NC(=O)c4cccc5c4NC(=O)c4ccccc4N5)c3)ccn2)c1 [Compound 4, N-(3-(5-(2-((5-Acrylamido-2-methoxyphenyl)amino)pyridin-4-yl)-2-ethyl-1H-imidazol-4-yl)phenyl)-11-oxo-10,11-dihydro-5H-dibenzo[b,e][1,4]diazepine-9-carboxamide]
[1]
  remaining binding at 1 µM: 72%
ACVR1B
  remaining binding at 1 µM: 85%
BMPR2
  remaining binding at 1 µM: 88%
CAMK1D
  remaining binding at 1 µM: 100%
CAMK2B
  remaining binding at 1 µM: 72%
CDK9
  remaining binding at 1 µM: 100%
CSF1R-autoinhibited
  remaining binding at 1 µM: 69%
CSNK2A2
  remaining binding at 1 µM: 58%
DRAK1
  remaining binding at 1 µM: 84%
EIF2AK1
  remaining binding at 1 µM: 75%
ERK1
  remaining binding at 1 µM: 99%
ERK5
  remaining binding at 1 µM: 100%
FLT3-autoinhibited
  remaining binding at 1 µM: 100%
FRK
  remaining binding at 1 µM: 20%
GRK2
  remaining binding at 1 µM: 100%
HIPK4
  remaining binding at 1 µM: 92%
LCK
  remaining binding at 1 µM: 7.7%
MAP3K1
  remaining binding at 1 µM: 100%
NEK7
  remaining binding at 1 µM: 86%
PAK4
  remaining binding at 1 µM: 89%
PCTK1
  remaining binding at 1 µM: 100%
PFPK5(P. falciparum)
  remaining binding at 1 µM: 100%
PIP5K2B
  remaining binding at 1 µM: 100%
QSK
  remaining binding at 1 µM: 100%
RIPK1
  remaining binding at 1 µM: 100%
ROCK2
  remaining binding at 1 µM: 94%
[2]
  remaining binding at 1 µM: 83%
[3]
  remaining binding at 1 µM: 100%
SGK2
  remaining binding at 1 µM: 83%
STK16
  remaining binding at 1 µM: 100%
SYK
  remaining binding at 1 µM: 63%
TBK1
  remaining binding at 1 µM: 95%
TNIK
  remaining binding at 1 µM: 33%
TRKA
  remaining binding at 1 µM: 77%
TXK
  remaining binding at 1 µM: 42%
ULK2
  remaining binding at 1 µM: 80%
WNK3
  remaining binding at 1 µM: 78%
EGFR(L858R)
  remaining binding at 1 µM: 5%
